“And” between values parts separate entries of the source, which are not always exact repeats. Equal entries are not always repeated.

These results are taken from paper PMC11211886 (Frontiers in Pharmacology, 2024).

For data set [1], the system named is plasma proteins. Briefly: Plasma protein binding (RED), mouse plasma. The data set is classed as in vitro ADME. The procedure: The plate containing plasma and buffer was equilibrated for 6 h in a 37°C water shaking bath. After incubation, aliquots of buffer and plasma (20 µL) on both sides were collected and precipitated using organic solvents. […] The post-dialysis recovery of amdizalisib was also measured.

For data set [2], the target named is T1, CYP2C8 (Homo sapiens, UniProt P10632).
T1 construct: tissue Life Technologies (Durham, NC, USA); host or cells: human liver microsomes
T1 sequence (P10632 1-490): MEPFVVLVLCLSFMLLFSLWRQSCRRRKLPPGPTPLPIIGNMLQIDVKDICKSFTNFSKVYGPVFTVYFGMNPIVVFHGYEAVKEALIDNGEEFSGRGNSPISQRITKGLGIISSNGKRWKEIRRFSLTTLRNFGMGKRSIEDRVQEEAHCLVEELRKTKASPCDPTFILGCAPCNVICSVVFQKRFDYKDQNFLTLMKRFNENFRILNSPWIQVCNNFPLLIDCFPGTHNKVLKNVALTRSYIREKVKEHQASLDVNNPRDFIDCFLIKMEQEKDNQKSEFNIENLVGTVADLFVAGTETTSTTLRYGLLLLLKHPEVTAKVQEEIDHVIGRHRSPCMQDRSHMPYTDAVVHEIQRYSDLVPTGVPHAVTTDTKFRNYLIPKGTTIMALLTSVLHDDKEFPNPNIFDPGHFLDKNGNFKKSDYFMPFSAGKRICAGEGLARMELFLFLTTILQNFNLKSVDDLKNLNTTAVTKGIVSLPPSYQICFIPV
As to the kind of experiment: Time-dependent CYP inhibition in HLM, CYP2C8. The data set is classed as in vitro ADME. To be noted: 10 μM, 30 min pre-incubation with NADPH. Here is the method:
The procedure of time-dependent CYP inhibition was similar to that used for CYP reversible inhibition, as mentioned above, except that a pre-incubation step was added. […] Another appropriate volume of the NADPH-regenerating system and probe substrate were added to initiate the CYP isoform enzyme activity test step. For this step, the incubation period was 10 min, except for CYP2B6, CYP2C8, and CYP3A4/5 (probe substrate: midazolam), which was 3 min to make sure the reaction was under initial linear rates. After incubation for the designated time periods at 37°C, the ice-cold acetonitrile containing IS was added to quench the reaction. […] (Ainactivator/[…] represents the enzyme activity remaining due to the inhibition by the diluted inactivator in the enzyme activity test step, and (Ainactivator/[…] represents the remaining enzyme activity due to pre-incubation loss plus inhibition by the diluted inactivator in the enzyme activity test step.

For data set [3] the following is noted: cited from earlier work.
The nature of data set [4]: Metabolic stability in human liver microsomes. The data set is classed as in vitro ADME. The procedure: FMO was deactivated by heating liver microsomes at 45°C for 5 min. […] The natural logarithm of the percentage of the drug remaining was plotted against the incubation time, and the slope of the linear regression (-k) was converted to in vitro half-lives (t1/2) using the following equation: […] (1) metabolic clearance is the major mechanism of clearance; (2) liver is the major organ of clearance; and (3) oxidation is the major metabolic pathway. CLint,in vitro=k / Cmicrosomes , Scaled CLint,in vivo=CLint,in vitro×microsomes yield×liver weight, where Cmicrosomes means the experimental protein concentration (0.5 mg/mL) in the incubation system. […] Then, the scaled in vivo intrinsic clearance was used to predict the systemic clearance (equal to the hepatic clearance) using the well-stirred venous equilibration model ([Houston, 1994]).

Data set [5] has as its target T2, CYP2E1 (Homo sapiens, UniProt P05181).
T2 construct: tissue Life Technologies (Durham, NC, USA); host or cells: human liver microsomes
As to the kind of experiment: Reversible CYP inhibition in HLM, CYP2E1 (chlorzoxazone). The format is in vitro ADME. Particulars: for enzyme activity remaining: CYP2E1, HLM. Here is the method:
The markers used to determine the activities of CYP isoforms were phenacetin O-deethylation for CYP1A2 (probe substrate: 50 µM phenacetin), bupropion hydroxylation for CYP2B6 (probe substrate: 70 µM bupropion), paclitaxel 6α-hydroxylation for CYP2C8 (probe substrate: 10 µM paclitaxel), diclofenac 4′-hydroxylation for CYP2C9 (probe substrate: 5 µM diclofenac), S-(+)-mephenytoin 4′-hydroxylation for CYP2C19 (probe substrate: 20 µM S-(+)-mephenytoin), dextromethorphan O-demethylation for CYP2D6 (probe substrate: 6 µM dextromethorphan), chlorzoxazone 6′-hydroxylation for CYP2E1 (probe substrate: 70 µM chlorzoxazone), and testosterone 6β-hydroxylation and midazolam 1′-hydroxylation for CYP3A4/5 (probe substrate: 45 µM testosterone and 5 µM midazolam). […] Alpha-naphthoflavone (0.04 µM), 2-phenyl-2-(1-piperidinyl)propane (5 µM), quercetin (1 µM), sulfaphenazole (0.5 µM), ticlopidine (4 µM), quinidine (0.2 µM), diethyldithiocarbamate (20 µM), and ketoconazole (0.05 µM) were used as positive inhibitors of CYP1A2, 2B6, 2C8, 2C9, 2C19, 2D6, 2E1, and 3A4, respectively. The vehicle control was prepared in the same composition as inhibitor solutions but free of inhibitors. The concentrations of probe substrates were close to Km values that were determined in-house and within the range recommended by the FDA ([Huang et al., 2007]). Reaction mixtures were incubated at 37°C for 5, 20, or 30 min, depending on the probe substrates of CYP isoforms. The reactions were terminated by adding cold acetonitrile containing IS, and the terminated incubation mixtures were centrifuged at 3,000 g for 10 min before LC-MS/MS analysis.

Data set [6] can be described thus: Human PK projection by allometric scaling. To be noted: allometric scaling with correction of MLP and fu. An excerpt:
Translational prediction of human plasma total clearance (CL) and volume of distribution at steady state (Vss) was projected using the AS approach for different preclinical species (mice, rats, dogs, and monkeys). The mean value of unbound plasma fraction (fu) in animals was applied to transform pharmacokinetic parameters (Vss or CL) to the corresponding free drug clearance (CLu) and free drug volume of distribution (Vss,u). The CLu in preclinical species was scaled to CLu in humans according to the following equations with consideration of the maximum lifespan potential (MLP) as a correction factor according to the rule of exponents (RoEs) ([Mahmood and Balian, 1996]), and Vss,u in preclinical species was scaled to Vss,u in humans simply based on BW according to the following equations. Both CLu and Vss,u in humans were converted to CL and Vss using the mean value of fu in humans. CLu×MLP=a×BW^b, log (CLu×MLP)=log a+b log BW, Vss,u=a×BW^b, log (Vss,u)=log a+b log BW,
where BW represents the body weight of the standard species (0.02, 0.2, 10, 4, and 70 kg for mice, rats, dogs, cynomolgus monkeys, and humans, respectively), a represents allometric coefficients, and b is allometric exponents.

T2 sequence (P05181 whole entry): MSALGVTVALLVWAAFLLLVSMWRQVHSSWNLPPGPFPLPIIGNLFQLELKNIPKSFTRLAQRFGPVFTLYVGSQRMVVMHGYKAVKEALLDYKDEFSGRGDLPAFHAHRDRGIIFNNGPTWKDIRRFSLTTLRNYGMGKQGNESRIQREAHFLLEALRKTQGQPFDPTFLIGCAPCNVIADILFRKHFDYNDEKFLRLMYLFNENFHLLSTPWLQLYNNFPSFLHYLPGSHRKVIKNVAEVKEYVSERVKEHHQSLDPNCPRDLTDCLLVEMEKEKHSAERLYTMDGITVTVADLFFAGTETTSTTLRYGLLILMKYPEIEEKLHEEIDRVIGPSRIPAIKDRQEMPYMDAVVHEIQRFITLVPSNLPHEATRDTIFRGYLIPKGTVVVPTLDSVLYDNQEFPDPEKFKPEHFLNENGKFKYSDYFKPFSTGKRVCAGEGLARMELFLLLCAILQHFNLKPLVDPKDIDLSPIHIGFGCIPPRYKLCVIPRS

In the case of `C[C@H](Nc1ncnc(N)c1C#N)c1cc2ncc(Cl)n2nc1-c1ccccc1` [Amdizalisib], the “Binding fraction to plasma proteins, Mouse” value in data set [1] (1 µM) was found to be 91.5 ± 1.01%; in data set [1] (mouse, 6 h, 0.1 µM, pH 7.4), 91.1 ± 0.95%; in data set [1] (mouse, 6 h, 20 µM, pH 7.4), 91.3 ± 0.89%. Also, the “activity loss of CYP2C8” value in data set [2] is listed as “less than 10%”. For the same compound, the “maximal unbound plasma concentration at steady state” value in data set [3] (30 mg QD in humans) was about 52.1 nM. For the same compound, the “observed human value (Vss/F)” value in data set [3] (human) is recorded as 2.33 L/kg. Further, the “reported human CLss/F” value in data set [3] (human) was 3.25 mL/min/kg. Also, the “Predicted CL sys” value in data set [4] (female human liver microsomes, FMO deactivation) was 5.07 mL/min/kg. For the same compound, the CLint scaled at 1 µM in data set [4] (female, human, microsomes, pH 7.4, Predicted CL int, iv vivo) is 5.78 mL/min/kg. For the same compound, in data set [4] (female, human, microsomes, pH 7.4, in vitro t1/2), the half-life at 1 µM was determined as 2.32 h. In addition, the parent drug remaining in data set [4] (male, human, microsomes, 2 h, 1 µM, pH 7.4) was over 80%. Besides, the enzyme activity remaining is 99.7% and 97.6% in data set [5] (0.08 μM); 99.0% and 96.9% in data set [5] (0.4 μM); 101% and 95.5% in data set [5] (2 μM); 105% and 97.6% in data set [5] (10 μM); 118% and 113% in data set [5] (50 μM). Also, in data set [5] (HLM, reversible, without pre-incubation), the half-maximal inhibitory concentration (IC50) is over 50 µM. In addition, the “predicted human CL” value in data set [6] is listed as 2.57 mL/min/kg.
